Columns and labels:
Bovine liver catalase [1] = molecular target: T1, Bovine liver catalase (Bos taurus, UniProt P00432); test: Comparative kinetic studies by ultraviolet-visible spectroscopy (compound II and Fe(II) sulfonium formation); format: biochemical; conditions: CAT + 2 mM HCys, 1 mM DTPA, pH 7.4, with the additive named (dimedone 4 mM, BCN 0.1 mM, SOD 40 U)
T1 construct: Bovine liver catalase was also purchased from Sigma-Aldrich; purchased Sigma-Aldrich; host or cells: bovine liver
T1 sequence (P00432 2-527 limits assumed): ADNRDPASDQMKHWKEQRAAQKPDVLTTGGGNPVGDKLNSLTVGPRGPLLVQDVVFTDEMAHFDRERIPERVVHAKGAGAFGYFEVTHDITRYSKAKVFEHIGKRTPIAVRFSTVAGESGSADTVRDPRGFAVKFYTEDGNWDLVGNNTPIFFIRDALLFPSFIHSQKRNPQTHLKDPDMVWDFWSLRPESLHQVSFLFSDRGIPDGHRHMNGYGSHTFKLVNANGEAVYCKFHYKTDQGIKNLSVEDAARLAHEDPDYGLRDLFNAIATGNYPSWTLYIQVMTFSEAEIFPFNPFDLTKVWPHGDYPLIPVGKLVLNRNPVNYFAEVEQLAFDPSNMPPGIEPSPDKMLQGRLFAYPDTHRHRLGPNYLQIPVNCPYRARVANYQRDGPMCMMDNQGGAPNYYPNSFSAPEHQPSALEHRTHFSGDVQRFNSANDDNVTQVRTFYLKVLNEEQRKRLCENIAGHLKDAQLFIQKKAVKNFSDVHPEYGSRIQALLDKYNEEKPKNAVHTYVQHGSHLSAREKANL
Method: Ultraviolet–visible spectra were recorded on a Cary 300 Scan or an Uvikon 941 spectrophotometer equipped with a temperature equilibrating water bath (±1 °C). Spectral changes over time were recorded when CAT was incubated with L-HCys (0.2 or 2 mM), L-Cys (0.2, 2 or 9 mM) or GSH (1 or 30 mM) at 25 °C in a 1 ml quartz cuvette containing a solution of CAT (2.7–5.9 μM) in 50 mM KPi, pH 7.4±1 mM DTPA. Due to half-site reactivity of biological thiols with CAT, the data were recorded versus a blank containing half the concentrations of CAT used in the experiments, that is, a solution of 1.35–2.95 μM CAT in 50 mM KPi at pH 7.4±1 mM DTPA. Reactions were initiated by addition of the thiol-containing compounds. Comparative kinetic studies were performed by incubating CAT ([…] in the experiment, 1.35–1.5 μM in the blank) with 2 mM L-HCys in 50 mM KPi, pH 7.4, 1 mM DTPA with or without […], 5,5-dimethyl-1,3-cyclohexanedione (dimedone, 4 mM), BCN (0.1 mM) or SOD, 40 U). All the experiments were performed at least in duplicate.

Bovine liver catalase [2] = molecular target: T1, Bovine liver catalase; test: Time course of catalase inactivation by HCys (activity test); format: biochemical; conditions: CAT + 2 mM HCys, 1 mM DTPA, pH 7.4, with the additive named (DMPO 100 mM, dimedone 4 mM, SOD 40 U); n=2±s.d.
Method: CAT activity was measured on an Uvikon 941 spectrophotometer equipped with a temperature controlled water bath (±1 °C) by following the disappearance of H2O2 at 240 nm over 30–120 s at 25 °C. Catalase activity was calculated based on the rate of decomposition of hydrogen peroxide, which is proportional to the reduction of the absorbance at 240 nm. Experiments were carried out in a 3 ml quartz cuvette containing 11.7 mM H2O2 in 50 mM KPi, pH 7.4±1 mM DTPA and the reaction was initiated by adding 0.3–0.6 pmoles of CAT. The effect of biological thiols on the activity of CAT under physiological conditions was determined from a solution of CAT (30–60 nM) preincubated at 25 °C for at least 120 min as a function thiol concentration (0–40 mM for HCys and Cys, 0–100 mM for GSH) in 50 mM KPi, pH 7.4, 1 mM DTPA. Control experiments (biological thiols alone) were also performed in parallel. In each case, 10 μl of the reaction mixture (biological thiols±CAT) was added to the cuvette containing the H2O2 solution to initiate the reaction. Similarly, the effect of biological thiols on the activity of CAT under pathological conditions was determined from a solution of CAT (30–60 nM) containing a 2.124±0.386 molar excess of iron that was preincubated with various concentrations of thiols (0–1 mM) for at least 120 min at 25 °C in 50 mM KP at pH 7.4. The relative half inhibitory concentration (IC50) values were obtained by plotting the relative activity of CAT (A, in per cent) as a function of the concentration of thiol-compounds (RSH) and by fitting the data with the following four parameter logistic equation: A=Amin+(Amax−Amin)/(1+([RSH]/IC50)^n), where Amax is the maximal activity of CAT (constrained at 100%), Amin is the minimum activity achieved at saturating concentration of RSH and n is the Hillslope that characterizes the slope of the curve at its midpoint. The inactivation rate (kinact, min^−1) was extracted from the time course of the inactivation of CAT bioactivity using a fixed concentration of HCys. Accordingly, a solution of CAT (3.5–5 μM) was incubated with 2 mM L-HCys in 50 mM KPi, pH 7.4, 1 mM DTPA. Aliquots (10 μl) were taken at intervals (0–480 min), diluted 1:50 in 50 mM KPi, pH 7.4, 1 mM DTPA and assayed for CAT activity as described above. […] The effect of NaSH on the consumption of H2O2 in cell lysates was determined from a solution of cell lysates (0.5–3 mg ml^−1) incubated on ice with various concentrations of NaSH (0–200 μM). […]

Bovine liver catalase [3] = molecular target: T1, Bovine liver catalase; test: Catalase activity (H2O2 disappearance at 240 nm) as a function of thiol concentration; format: biochemical; conditions: DTPA 0-10 mM, CAT 40 nM pre-incubated 120 min, 25 °C
Method: CAT activity was measured on an Uvikon 941 spectrophotometer equipped with a temperature controlled water bath (±1 °C) by following the disappearance of H2O2 at 240 nm over 30–120 s at 25 °C. Catalase activity was calculated based on the rate of decomposition of hydrogen peroxide, which is proportional to the reduction of the absorbance at 240 nm. Experiments were carried out in a 3 ml quartz cuvette containing 11.7 mM H2O2 in 50 mM KPi, pH 7.4±1 mM DTPA and the reaction was initiated by adding 0.3–0.6 pmoles of CAT. The effect of biological thiols on the activity of CAT under physiological conditions was determined from a solution of CAT (30–60 nM) preincubated at 25 °C for at least 120 min as a function thiol concentration (0–40 mM for HCys and Cys, 0–100 mM for GSH) in 50 mM KPi, pH 7.4, 1 mM DTPA. Control experiments (biological thiols alone) were also performed in parallel. In each case, 10 μl of the reaction mixture (biological thiols±CAT) was added to the cuvette containing the H2O2 solution to initiate the reaction. Similarly, the effect of biological thiols on the activity of CAT under pathological conditions was determined from a solution of CAT (30–60 nM) containing a 2.124±0.386 molar excess of iron that was preincubated with various concentrations of thiols (0–1 mM) for at least 120 min at 25 °C in 50 mM KP at pH 7.4. The relative half inhibitory concentration (IC50) values were obtained by plotting the relative activity of CAT (A, in per cent) as a function of the concentration of thiol-compounds (RSH) and by fitting the data with the following four parameter logistic equation: A=Amin+(Amax−Amin)/(1+([RSH]/IC50)^n), where Amax is the maximal activity of CAT (constrained at 100%), Amin is the minimum activity achieved at saturating concentration of RSH and n is the Hillslope that characterizes the slope of the curve at its midpoint. The inactivation rate (kinact, min^−1) was extracted from the time course of the inactivation of CAT bioactivity using a fixed concentration of HCys. Accordingly, a solution of CAT (3.5–5 μM) was incubated with 2 mM L-HCys in 50 mM KPi, pH 7.4, 1 mM DTPA. Aliquots (10 μl) were taken at intervals (0–480 min), diluted 1:50 in 50 mM KPi, pH 7.4, 1 mM DTPA and assayed for CAT activity as described above. Similar experiments were performed in the presence of DMPO, 5,5-dimethyl-1,3-cyclohexanedione (dimedone) or SOD at a final concentration of 100 mM, 4 mM or 40 U, respectively. kinact values were obtained by plotting the relative activity of CAT (A, in per cent) as a function of the incubation time and the data were fitted with an exponential decay function: A=A0+ΔA × e^−kinact × t, with A0 and ΔA (A0+ΔA=100%) the residual activity and the percentage of CAT inhibition when t→∞, respectively. The effect of NaSH on the consumption of H2O2 in cell lysates was determined from a solution of cell lysates (0.5–3 mg ml^−1) incubated on ice with various concentrations of NaSH (0–200 μM). The disappearance of H2O2 was then followed at 240 nm for 2–5 min at 25 °C after the addition of 20–25 μl of the reaction mixture in a 3 ml cuvette containing 11.7 mM H2O2 in 50 mM KPi, pH 7.4. The relative half inhibitory concentration (IC50) values for NaSH were obtained by plotting the relative rate of disappearance of H2O2 (ΔA240 nm/min) as a function of the concentration of NaSH and by fitting the data with an hyperbolic decay equation. All the experiments were performed at least in triplicate.

[4] = test system: M17 human neuroblastoma cells; test: Relative specific activity of catalase (SpCAT) in cells treated with rotenone; format: cell-based; conditions: BE2-M17 cells, 100 nM rotenone, 48 h
Method: Hek293T cells (n=2) were plated and transfected the following day with pcDNA (empty vector), Htt-N171-82Q (Htt) or Alpha-synuclein-A53T (α-Syn) plasmids (20 μg) with the calcium phosphate method. BE2-M17 cells (n=2) were plated and treated the following day with 100 nM rotenone dissolved in DMSO or DMSO alone. Hek293T and BE2-M17 cells were collected 48 h after transfection or treatment with DMSO±rotenone, respectively.
The relative specific activity (activity and quantity) of catalase in the cell lysates was determined using the kit ab118184 from Abcam (Cambridge, MA). The measurements were performed in duplicate as per the manufacturer's protocol. Briefly, catalase in cell lysates (0.1–0.2 mg cell lysates per assay) was immunocaptured within the wells of the microplate. An assay buffer, which contains H2O2 that reacts with a substrate to generate a luminescent product, was added to each well. […] Then, the quantity of catalase was measured by adding to each well an anti-catalase primary detector antibody. […] A blue colour (absorbance at 600 nm) developed in proportion to the amount of catalase bound. Luminescence and absorbance measurements were performed on an EnSpire Multilabel Reader 2300 (PerkinElmer). […] The protocol above was then followed to determine activity measurement and catalase quantification.

[5] = test system: crypt and surface epithelial cells; test: Relative specific activity of catalase (SpCAT) in rodent model of DSS-induced colitis; format: in vivo, mice; conditions: DSS 3.5% in drinking water for 5 days, cells isolated day 7
Method: Seven-week-old male C57BL/6J mice (n=6; Envigo, Gannat, France) were acclimated for 1 week with free access to standard mouse chow and tap water. Each mouse was maintained in a cage under controlled conditions of temperature (23 °C), humidity (55±10%) and light (12:12 h light–dark cycle). Colitis was induced by the addition of DSS (3.5% (wt/vol), 36,000–50,000 MW, MP Biomedicals Illkirch-Graffenstaden, France) to the drinking water for 5 days (n=3). Healthy control animals (n=3) received fresh tap water, only. Two days after DSS arrest (day 7), mice were killed. […]
The relative specific activity (activity and quantity) of catalase in the cell lysates was determined using the kit ab118184 from Abcam (Cambridge, MA). […] Then, the quantity of catalase was measured by adding to each well an anti-catalase primary detector antibody. […] A blue colour (absorbance at 600 nm) developed in proportion to the amount of catalase bound. Luminescence and absorbance measurements were performed on an EnSpire Multilabel Reader 2300 (PerkinElmer). […] The protocol above was then followed to determine activity measurement and catalase quantification.

**Q.** With `CC1(C)CCC=[N+]1[O-]` [DMPO, 5,5-Dimethyl-1-Pyrroline-N-Oxide] as the compound, how does the “Ultraviolet–visible spectroscopy kobs(6) (CAT–Fe(IV)=O formation)” value (Bovine liver catalase [1]) read?
**A.** 0.010 ± 0.002 min⁻¹

**Q.** And the kinact (Bovine liver catalase [2])?
**A.** 0.00015 s⁻¹

**Q.** For `O=C(O)CN(CCN(CC(=O)O)CC(=O)O)CCN(CC(=O)O)CC(=O)O` [DTPA, diethylene triamine pentaacetic acid], which “effect on the activity of CAT” value (Bovine liver catalase [3]) is on record?
**A.** does not interfere

**Q.** For `CC1(C)CC(=O)CC(=O)C1` [Dimedone, 5,5-dimethyl-1,3-cyclohexanedione], which “Ultraviolet–visible spectroscopy kobs(6) (CAT–Fe(IV)=O formation)” value (Bovine liver catalase [1]) is on record?
**A.** ^†0.019±0.003 min^−1

**Q.** What about the kinact (Bovine liver catalase [2]) of the same compound?
**A.** 0.0003 s⁻¹

**Q.** For `C=C(C)[C@H]1Cc2c(ccc3c2O[C@@H]2COc4cc(OC)c(OC)cc4[C@@H]2C3=O)O1` [rotenone], which SpCAT versus control [4] is on record?
**A.** inhibited

**Q.** Dextran Sulfate Sodium [DSS] was tested. Which “SpCAT versus untreated mice” value [5] did it give?
**A.** not modified

**Q.** Which “Ultraviolet–visible spectroscopy kobs(6) (CAT–Fe(IV)=O formation)” value (Bovine liver catalase [1]) does the source give for bicyclo[6.1.0]nonyne [BCN] here?
**A.** 0.018 ± 0.002 min⁻¹

**Q.** For superoxide dismutase [SOD], which “Ultraviolet–visible spectroscopy kobs(6) (CAT–Fe(IV)=O formation)” value (Bovine liver catalase [1]) is on record?
**A.** 0.020 ± 0.002 min⁻¹

**Q.** And the Activity test kinact (Bovine liver catalase [2])?
**A.** 0.018 ± 0.001 min⁻¹
